We go through 14 molecules from PubChem BioAssay (NCI).

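Compound exposure: 48 hours, 5 concentrations, 96-well plates. Definition used: TGI = concentration required for complete inhibition of growth.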

Some test systems named below: HCC-2998 colon; MALME-3M melanoma; EKVX NSCLC; OVCAR-8 ovarian; MDA-MB-435; HCT-116 colon; 786-0 renal; MOLT-4 leukemia; K-562 leukemia; U251 CNS.
Assay in all cases: NCI-60 cell line screen, 48 h

Consider `C[C@]12CC[C@H](O)CC1=CC[C@@H]1[C@@H]2CC[C@]2(C)C(=O)/C(=C/c3ccc([N+](=O)[O-])cc3)C[C@@H]12`, for which the TGI was over 100 µM with HCC-2998 colon; 53.7 µM in the assay with MALME-3M melanoma; 24.9 µM in the assay on EKVX NSCLC; 12.3 µM in the assay with OVCAR-8 ovarian; over 100 µM with MDA-MB-435; 62.3 µM with HCT-116 colon. In addition, the values for the TGI with 786-0 renal, with MOLT-4 leukemia and with K-562 leukemia were 10.8 µM, over 100 µM and over 100 µM, respectively.

`NCCS(=O)(=O)O`: the TGI in the assay with HCC-2998 colon, in the assay on MALME-3M melanoma, in the assay with EKVX NSCLC, in the assay on OVCAR-8 ovarian, with MDA-MB-435 and in the assay with HCT-116 colon was over 100 µM in each case. Besides, the TGI in the assay with 786-0 renal, with MOLT-4 leukemia, with K-562 leukemia and in the assay on U251 CNS was over 100 µM throughout.

For the molecule `CC1C(C#N)(C#N)C(C#N)=C(N)C1(C)[N+](=O)[O-]` (stereo not given), the TGI with HCC-2998 colon was over 100 µM; in the assay with MALME-3M melanoma, over 100 µM; with EKVX NSCLC, 42.6 µM; in the assay with OVCAR-8 ovarian, over 100 µM; in the assay with MDA-MB-435, over 100 µM; in the assay with HCT-116 colon, over 100 µM. Besides, the TGI with 786-0 renal, in the assay on MOLT-4 leukemia, in the assay on K-562 leukemia and in the assay with U251 CNS was over 100 µM in each case.

`C[C@@]12C[C@@H](c3ccccc3O1)N1Cc3ccccc3CSC1=N2`: the TGI in the assay on HCC-2998 colon, in the assay with MALME-3M melanoma, with EKVX NSCLC, with OVCAR-8 ovarian, in the assay with MDA-MB-435 and in the assay with HCT-116 colon was over 100 µM in each case. For the same molecule, the TGI in the assay on 786-0 renal, with MOLT-4 leukemia, in the assay with K-562 leukemia and in the assay on U251 CNS was over 100 µM throughout.

Take `OC(C1CCCCCCCCCC1)C(O)C1CCCCCCCCCC1` (stereo not given): the TGI in the assay with HCC-2998 colon, with MALME-3M melanoma, in the assay with EKVX NSCLC, in the assay on OVCAR-8 ovarian, in the assay on MDA-MB-435 and with HCT-116 colon was over 100 µM throughout. Also, the TGI in the assay with 786-0 renal, in the assay on MOLT-4 leukemia, in the assay on K-562 leukemia and with U251 CNS was over 100 µM in each case.

Regarding `O=C(NNS(=O)(=O)c1ccccc1)c1csc(NC(=S)NC2CCCCC2)n1`, the TGI is over 100 µM in the assay with HCC-2998 colon; over 100 µM in the assay on MALME-3M melanoma; over 100 µM in the assay with EKVX NSCLC; over 100 µM in the assay on OVCAR-8 ovarian; 43.3 µM with MDA-MB-435; 36 µM in the assay on HCT-116 colon. For the same molecule, the TGI in the assay on 786-0 renal is 32.4 µM; in the assay on MOLT-4 leukemia, over 100 µM; with K-562 leukemia, over 100 µM; in the assay on U251 CNS, over 100 µM.

Consider `COC12C=CC(CC1)C(C)(C)C2OS(C)(=O)=O` (stereo not given), for which the TGI with HCC-2998 colon, with MALME-3M melanoma, with EKVX NSCLC, with OVCAR-8 ovarian, in the assay with MDA-MB-435 and in the assay with HCT-116 colon was over 100 µM in each case. In addition, the TGI in the assay on 786-0 renal, in the assay on MOLT-4 leukemia, in the assay on K-562 leukemia and in the assay with U251 CNS was over 100 µM each time.

With `CCOC(=O)C(NC(=O)CC)(Nc1ccc(S(=O)(=O)Nc2ccc(OC)nn2)cc1)C(F)(F)F` (stereo not given), the TGI in the assay with HCC-2998 colon, with MALME-3M melanoma, in the assay on EKVX NSCLC, in the assay with OVCAR-8 ovarian, in the assay on MDA-MB-435 and in the assay on HCT-116 colon was over 100 µM throughout. Moreover, the TGI in the assay with 786-0 renal, in the assay on MOLT-4 leukemia, in the assay with K-562 leukemia and with U251 CNS was over 100 µM in each case.

With `N#Cc1c(N2CCCC2)nsc1Nc1ccc(F)cc1`, the TGI with HCC-2998 colon, in the assay on MALME-3M melanoma, in the assay with EKVX NSCLC, in the assay with OVCAR-8 ovarian, with MDA-MB-435 and in the assay with HCT-116 colon was over 100 µM in each case. The TGI with 786-0 renal, in the assay with MOLT-4 leukemia, with K-562 leukemia and in the assay with U251 CNS was over 100 µM each time.

As for `O=C1O[C@H]2C3C4CCC(C4[C@@H]2I)[C@H]13` (stereo not given in full), the TGI in the assay on HCC-2998 colon, in the assay on MALME-3M melanoma, with EKVX NSCLC, in the assay on OVCAR-8 ovarian, with MDA-MB-435 and in the assay with HCT-116 colon was over 100 µM throughout. Also, the TGI with 786-0 renal, in the assay on MOLT-4 leukemia, with K-562 leukemia and with U251 CNS was over 100 µM in each case.

`O=c1[nH]nc(Cc2ccc(Cl)cc2)n1/N=C/c1c[nH]c2ccccc12`: the TGI in the assay with HCC-2998 colon, in the assay with MALME-3M melanoma, in the assay on EKVX NSCLC, in the assay with OVCAR-8 ovarian, with MDA-MB-435 and in the assay with HCT-116 colon was over 100 µM each time. Moreover, the TGI in the assay with 786-0 renal, in the assay on MOLT-4 leukemia, in the assay on K-562 leukemia and with U251 CNS was over 100 µM throughout.

Turning to `COc1ccc(Cn2c3ccc([N+](=O)[O-])cc3c(=O)n2Cc2ccccn2)cc1`, the TGI with HCC-2998 colon, with MALME-3M melanoma, with EKVX NSCLC, with OVCAR-8 ovarian, with MDA-MB-435 and in the assay with HCT-116 colon was over 100 µM in each case. For the same molecule, the TGI in the assay on 786-0 renal, with MOLT-4 leukemia, in the assay with K-562 leukemia and in the assay with U251 CNS was over 100 µM throughout.

In the case of `N#Cc1ccc(C2Oc3ccc(Cl)cc3C=C2[N+](=O)[O-])cc1` (stereo not given), the TGI in the assay with HCC-2998 colon worked out at 3.21 µM; in the assay with MALME-3M melanoma it was 4.79 µM; with EKVX NSCLC it was 3.42 µM; with MDA-MB-435, 3.56 µM; in the assay with HCT-116 colon, 0.987 µM; in the assay on MOLT-4 leukemia, 4.24 µM. Besides, the TGI in the assay on K-562 leukemia was determined as 2.04 µM; in the assay with U251 CNS, 3.31 µM.

Turning to `CCOC(=O)C1=C(c2ccccc2)C12N(Cc1ccccc1)C(=O)C2(c1ccccc1)c1ccccc1` (stereo not given), the TGI is 90.3 µM in the assay with HCC-2998 colon; over 100 µM in the assay on MALME-3M melanoma; over 100 µM in the assay with EKVX NSCLC; over 100 µM in the assay on MDA-MB-435; over 100 µM in the assay on HCT-116 colon; over 100 µM in the assay on MOLT-4 leukemia. Also, the TGI with K-562 leukemia and in the assay with U251 CNS was over 100 µM in each case.
